Consider 2 compounds from ChEMBL document CHEMBL1152010, “Synthesis of new amide-linked N-hydroxyurea 5-lipoxygenase inhibitors by an intramolecular oxygen to nitrogen acyl transfer” (Bioorg Med Chem Lett, 1993).

The species named for one series is Homo sapiens. Description: Tested for the inhibition of leukotriene biosynthesis in human whole blood. The format is functional.
A short description of series [1]: Half life after oral dosing in rats. The format is ADME, organism-based. Conditions: rat, in vivo.

As for `NC(=O)N(O)CCNC(=O)c1cccc(Oc2ccccc2)c1`, the IC50 in the series filed under Homo sapiens is 230 nM. This compound had a half-life in series [1] of 3.6 h.

Compound `NC(=O)N(O)C/C=C/c1cccc(Oc2ccccc2)c1` displayed an IC50 in the series filed under Homo sapiens of 90 nM. In series [1], the half-life is 1.5 h.
